Data from ChEMBL document CHEMBL4706759, “Novel Substituted Pyrazines as Splicing Modulators for Modulating Splicing of mRNA and Uses Thereof for Treating Diseases” (ACS Med Chem Lett, 2021).

What was measured:
SMN2 pre-mRNA [1] = assay: Modulation of SMN2 mRNA splicing in spinal muscular atrophy patient fibroblasts assessed as change in SMN protein expression measured after 48 hrs by MSD analysis; set-up: species or system Homo sapiens; details: fibroblast
SMN2 pre-mRNA [2] = assay: Modulation of SMN2 mRNA splicing in spinal muscular atrophy patient fibroblasts measured after 24 hrs by TaqMan qPCR analysis; type: tissue-based, Homo sapiens; details: fibroblast

With CN(c1cnc(-c2ccc(-c3cn[nH]c3)cc2O)cn1)[C@H]1C[C@@H]2CCC[C@@H](N2)[C@H]1F the EC50 (SMN2 pre-mRNA [1]) was 0.01 nM and the EC50 (SMN2 pre-mRNA [2]) was 16 nM.

With CN(c1cnc(-c2ccc(-c3ccn(C)c(=O)c3)cc2O)cn1)[C@@H]1C[C@H]2CCC[C@H](N2)[C@@H]1F the EC50 (SMN2 pre-mRNA [1]) was 0.01 nM and the EC50 (SMN2 pre-mRNA [2]) was 51 nM.

Compound CN(c1cnc(-c2ccc(-c3cn[nH]c3)cc2O)cn1)[C@H]1C[C@]2(C)CCC[C@@](C)(N2)[C@H]1F has an EC50 (SMN2 pre-mRNA [1]) of 0.01 nM and an EC50 (SMN2 pre-mRNA [2]) of 16 nM.

CN(c1cnc(-c2ccc(-c3cn[nH]c3)cc2O)cn1)[C@H]1C[C@@H]2CC[C@@H](N2)[C@H]1F showed an EC50 (SMN2 pre-mRNA [1]) of 0.01 nM and an EC50 (SMN2 pre-mRNA [2]) of 16 nM.

With CN(c1cnc(-c2cc(F)c(-c3cn[nH]c3)cc2O)cn1)[C@H]1C[C@@H]2CC[C@@H](N2)[C@H]1F the EC50 (SMN2 pre-mRNA [1]) was 0.01 nM and the EC50 (SMN2 pre-mRNA [2]) was 16 nM.

Compound CN(c1cnc(-c2ccc(-c3cn[nH]c3)cc2O)cn1)[C@H]1C[C@@H]2CC[C@@](C)(N2)[C@H]1F has an EC50 (SMN2 pre-mRNA [1]) of 0.01 nM and an EC50 (SMN2 pre-mRNA [2]) of 16 nM.
